From ChEMBL document CHEMBL1134048, “Novel antitumor artemisinin derivatives targeting G1 phase of the cell cycle” (Bioorg Med Chem Lett, 2001)
Values belong to the compound of their own block, whether it stands above or below them.

Tests used:
[1] = tested on: A549; experiment: In vitro inhibitory concentration required against human lung A549 carcinoma cells proliferation; type: functional, cell-based
[2] = tested on: NIH3T3; experiment: In vitro inhibitory concentration required against NIH3T3 cells proliferation; type: functional, cell-based; details: Mus musculus
[3] = tested on: P388; experiment: Ability to induce apoptosis after 21 hrs of incubation of P388 cells; type: functional, cell-based; details: Mus musculus
[4] = tested on: P388; experiment: Percent of cells in sub-G1 phase (apoptotic cells) of cell cycle was determined after 21 hrs of incubation of P388 cells; type: functional, Mus musculus
[5] = tested on: P388; experiment: In vitro inhibitory concentration required against murine P388 leukemic cells proliferation; type: functional, cell-based; details: Mus musculus
[6] = tested on: P388; experiment: Percent of cells in G1 phase of cell cycle, was determined after 21 hrs of incubation of P388 cells; type: functional, Mus musculus
[7] = tested on: P388; experiment: Percent of cells in G1 phase of cell cycle was determined after 21 hrs of incubation of P388 cells; type: functional, Mus musculus

Compound: C[C@@H]1CCC2[C@@H](C)[C@@H](O[C@@H](C#N)c3ccc(Br)cc3)O[C@@H]3O[C@]4(C)CCC1[C@@]23OO4 (stereo partly specified)
- IC50 [1]: 0.047 µM
- IC50 [2]: 3050 µM
- Concentration [3]: 25 nM
- Apoptosis [4]: 49%
- IC50 [5]: 0.012 µM
- G1 [6]: 62%

Compound: C[C@@H]1CCC2[C@@H](C)[C@@H](OCC#N)O[C@@H]3O[C@]4(C)CCC1[C@@]23OO4 (stereo partly specified)
- IC50 [1]: 79.4 µM
- Concentration [3]: 10000 nM
- Apoptosis [4]: 7%
- IC50 [5]: 1.85 µM
- G1 [6]: 65%

- IC50 [1]: 42 µM
- IC50 [5]: 24.2 µM
Compound: C[C@@H]1CCC2[C@@H](C)[C@@H](OC(C#N)c3ccc(Br)cc3)O[C@@H]3O[C@]4(C)CCC1[C@@]23O4 (stereo partly specified)

- IC50 [1]: 0.018 µM
- IC50 [5]: 0.002 µM
Compound: CC[C@]1(O)C[C@H]2CN(CCc3c([nH]c4ccccc34)[C@@](C(=O)OC)(c3cc4c(cc3OC)N(C=O)[C@H]3[C@@](O)(C(=O)OC)[C@H](OC(C)=O)[C@]5(CC)C=CCN6CC[C@]43[C@@H]65)C2)C1 [VINCRISTINE]

Compound: C[C@@H]1CCC2[C@@H](C)[C@@H](O[C@H](C#N)c3ccc(Br)cc3)O[C@@H]3O[C@]4(C)CCC1[C@@]23OO4 (stereo partly specified)
- IC50 [1]: 0.039 µM
- IC50 [2]: 5120 µM
- Concentration [3]: 25 nM
- Apoptosis [4]: 51%
- IC50 [5]: 0.011 µM
- G1 [6]: 63%

Compound: C[C@@H]1CCC2[C@@H](C)[C@@H](O[C@H](C#N)c3ccccc3)O[C@@H]3O[C@]4(C)CCC1[C@@]23OO4 (stereo partly specified)
- IC50 [1]: 0.662 µM
- Concentration [3]: 100 nM
- Apoptosis [4]: 45%
- G1 [7]: 61%
- IC50 [5]: 0.048 µM

Compound: C[C@@H]1CCC2[C@@H](C)[C@@H](O[C@@H](C#N)c3ccccc3)O[C@@H]3O[C@]4(C)CCC1[C@@]23OO4 (stereo partly specified)
- IC50 [1]: 1.23 µM
- Concentration [3]: 500 nM
- Apoptosis [4]: 53%
- IC50 [5]: 0.238 µM
- G1 [6]: 67%
